# According to US20240199605A1, “SMALL MOLECULAR INHIBITORS OF NF-kB INDUCING KINASE” (Janssen Pharmaceutica NV, priority 2019, published 2024):
# How the values were obtained:
# [1] = target: recombinant human NF-kappaB-inducing kinase (NIK/MAP3K14) (Homo sapiens (Human), UniProt Q99558); assay: Inhibition of auto-phosphorylation of recombinant human NIK/MAP3K14 (AlphaScreen); assay type: biochemical; conditions: NIK auto-phosphorylation, 5 μM ATP, 1 nM NIK, 2 h at 25° C.; average of values
# Experimental: Inhibition of auto-phosphorylation of recombinant human NF-kappaB-inducing kinase (NIK/MAP3K14) activity (AlphaScreen®)
# NIK/MAP3K14 auto-phosphorylation activity was measured using the AlphaScreen® (αscreen) format (Perkin Elmer). All compounds tested were dissolved in dimethyl sulfoxide (DMSO) and further dilutions were made in assay buffer. The final DMSO concentration was 0.7% (v/v) in assays. The assay buffer was 50 mM Tris pH 7.5 containing 1 mM EGTA (ethylene glycol tetraacetic acid), 1 mM DTT (dithiothreitol), 0.1 mM Na3VO4, 5 mM MgCl2, and 0.01% Tween® 20. The assays were carried out in 384 well Proxiplates (Perkin Elmer). The incubations consisted of the compound, 5 μM Adenosine-5′-triphosphate (ATP), and 1 nM NIK/MAP3K14. Incubations were initiated by the addition of GST-tagged NIK/MAP3K14 enzyme, carried out for 2 h at 25° C. and terminated by addition of stop buffer containing anti-phospho-IKK Ser176/180 antibody. Protein A Acceptor and Glutathione-Donor beads were added before reading using an EnVision® Multilabel Plate Reader (Perkin Elmer). […] IC50's were determined by fitting a sigmoidal curve to % inhibition of control versus Log10 compound concentration.
# [2] = test system: p-IKKα levels in L363 (NIK translocated multiple myeloma) cells; assay: Effect of compounds on p-IKKα levels in L363 cells (AlphaLISA SureFire Ultra); assay type: cell-based, human; conditions: Homo sapiens, L-363, 6 h, BAFF stimulated, MG132, 6 h, average of values, read-out: Assay 2 IC50
# Experimental: Effect of Compounds on p-IKKα Levels in L363 (NIK Translocated Multiple Myeloma) Cells
# All compounds tested were dissolved and serially diluted in DMSO, 1:3 dilution for 11 points in an Echo compatible plate. 100% DMSO was added to columns 12 and 24 of the plate to serve as high and low signal controls. This compound plate was used to spot 20 nL of compound or DMSO into a Greiner 384 well TC plate (781080). The final DMSO concentration was 0.3% (v/v) in cell assays. Human L363 cells (ATCC) were cultured in RPM11640 medium supplemented with GlutaMax, non-essential amino acids, sodium pyruvate and 10% fetal bovine serum. Cells were routinely maintained at densities of […] at 37° C. in a humidified 5% CO2 atmosphere incubator. Cells were passaged twice a week splitting back to obtain the low density. The day before the assay, cells were washed twice in HBSS (Hank's Balanced Salt Solution), resuspended in Dulbecco's Modified Eagle Medium (DMEM)+0.5% IgG and protease free BSA (Jackson Immuno Research Laboratories), +/−250 ng/ml recombinant human B-cell activating factor (BAFF/BLyS/TNFSF13B) and incubated overnight at 37° C. in a humidified 5% CO2 atmosphere (bulk stimulation with or without BAFF). The next day, the cell concentration was adjusted to 1×10^7 cells/ml in DMEM+/−250 ng/ml BAFF+/−10 μM MG132 and plated at 10 μl/well into compound or DMSO spotted 384 well TC plates. Seeded cells were incubated at 37° C. in a humidified 5% CO2 atmosphere for 6 h. After 6 h, the plates were removed from the incubator and cell lysis was achieved by the addition of 2.5 μl 5× lysis buffer containing protease and phosphatase inhibitors, followed by shaking on a plate shaker at room temperature for 15 min. At the end of this incubation, lysed cells were sequentially treated and incubated with acceptor and donor bead mixes according to the manufacturer's protocol for a 1 plate/2-incubation suspension cell assay (AlphaLISA SureFire Ultra p-IKKa (Ser 176/180) Assay Kit (Perkin Elmer). Plates were read using an EnVision® Multilabel Plate Reader (Perkin Elmer). Within an experiment, a concentration response curve for each compound was run in duplicate. The signal obtained in the test wells was normalized using high signal (BAFF stimulated cells, DMSO, MG132) and low signal (unstimulated cells, DMSO) controls. To determine the IC50, a sigmoidal curve was fitted to the plot of % inhibition versus Log10 compound concentration.
# recombinant human NF-kappaB-inducing kinase (NIK/MAP3K14), sequence (Q99558 whole entry): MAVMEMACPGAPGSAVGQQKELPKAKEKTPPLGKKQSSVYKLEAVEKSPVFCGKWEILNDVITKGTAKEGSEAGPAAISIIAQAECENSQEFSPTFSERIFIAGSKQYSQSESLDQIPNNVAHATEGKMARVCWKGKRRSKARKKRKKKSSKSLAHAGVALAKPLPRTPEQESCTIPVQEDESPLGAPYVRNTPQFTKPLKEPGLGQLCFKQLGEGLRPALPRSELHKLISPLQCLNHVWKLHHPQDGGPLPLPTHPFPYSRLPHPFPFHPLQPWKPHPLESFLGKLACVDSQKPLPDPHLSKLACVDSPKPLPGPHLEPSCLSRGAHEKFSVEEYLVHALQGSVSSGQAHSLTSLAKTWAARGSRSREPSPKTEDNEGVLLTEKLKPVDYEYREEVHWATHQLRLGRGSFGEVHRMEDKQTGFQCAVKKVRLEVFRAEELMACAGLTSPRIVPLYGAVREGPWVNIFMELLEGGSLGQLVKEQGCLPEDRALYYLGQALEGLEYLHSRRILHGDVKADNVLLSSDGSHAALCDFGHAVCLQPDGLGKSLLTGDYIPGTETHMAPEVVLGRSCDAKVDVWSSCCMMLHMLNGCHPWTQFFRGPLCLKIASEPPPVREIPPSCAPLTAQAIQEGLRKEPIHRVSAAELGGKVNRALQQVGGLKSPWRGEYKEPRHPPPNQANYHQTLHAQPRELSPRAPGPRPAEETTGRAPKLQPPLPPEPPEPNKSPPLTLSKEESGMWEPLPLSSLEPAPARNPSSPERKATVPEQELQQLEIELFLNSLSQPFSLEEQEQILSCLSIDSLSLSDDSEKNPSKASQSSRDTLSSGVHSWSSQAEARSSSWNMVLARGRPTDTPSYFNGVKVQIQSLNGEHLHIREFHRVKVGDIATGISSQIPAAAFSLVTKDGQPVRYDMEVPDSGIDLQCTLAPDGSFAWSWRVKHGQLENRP
structure (smiles),measurement,setting,value
"CN1CC[C@@](O)(C#Cc2cccc(-c3cn4cncc4c(=O)[nH]3)c2)C1=O [Example 218, (R)-6-[3-[2-(3-Hydroxy-1-methyl-2-oxo-pyrrolidin-3-yl)ethynyl]phenyl]-7H-imidazo[1,5-a]pyrazin-8-one]",IC50,[1],78 nM
same,IC50,[2],> 5000 nM
"C=Cc1cc(-c2cccc(C#C[C@]3(O)CCN(C)C3=O)c2)nc2c(N)ncnc12 [Example 314, (R)-3-((3-(4-Amino-8-vinylpyrido[3,2-d]pyrimidin-6-yl)phenyl)ethynyl)-3-hydroxy-1-methylpyrrolidin-2-one]",IC50,[1],2.9 nM
same,IC50,[2],14 nM
"CN1CC[C@@](C#Cc2cccc(-c3ccc4ncnc(N)c4n3)c2)(C(F)F)C1=O [Example 205, (S)-3-((3-(4-Aminopyrido[3,2-d]pyrimidin-6-yl)phenyl)ethynyl)-3-(difluoromethyl)-1-methylpyrrolidin-2-one]",IC50,[1],4880 nM
same,IC50,[2],> 5000 nM
"CN1CC[C@@](O)(C#Cc2cccc(-c3nc4c(N)nccc4s3)c2)C1=O [Example 116, (R)-3-((3-(4-Aminothiazolo[4,5-c]pyridin-2-yl)phenyl)ethynyl)-3-hydroxy-1-methylpyrrolidin-2-one]",IC50,[1],0.9 nM
same,IC50,[2],47 nM
"CC(C)c1nc(-c2cccc(C#C[C@]3(O)CCN(C)C3=O)c2)nc2c(N)nccc12 [Example 98, (R)-3-((3-(8-Amino-4-isopropylpyrido[3,4-d]pyrimidin-2-yl)phenyl)ethynyl)-3-hydroxy-1-methylpyrrolidin-2-one]",IC50,[1],1.5 nM
same,IC50,[2],38 nM
"Cc1nc(N)c2nc(-c3cccc(C#C[C@]4(O)CCN(C)C4=O)c3)cc(C)c2n1 [Example 285, (R)-3-((3-(4-Amino-2,8-dimethylpyrido[3,2-d]pyrimidin-6-yl)phenyl)ethynyl)-3-hydroxy-1-methylpyrrolidin-2-one]",IC50,[1],1.7 nM
same,IC50,[2],12 nM
"CN1CC[C@@](O)(C#Cc2cccc(N3CCc4ncnc(N)c4C3)c2)C1=O [Example 159, (R)-3-((3-(4-Amino-7,8-dihydropyrido[4,3-d]pyrimidin-6(5H)-yl)phenyl)ethynyl)-3-hydroxy-1-methylpyrrolidin-2-one]",IC50,[1],1.3 nM
same,IC50,[2],130 nM
"Nc1nccc2cnc(-c3cccc(C#C[C@]4(O)CCn5ccnc54)c3)nc12 [Example 17, (R)-7-[2-[3-(8-Aminopyrido[3,4-d]pyrimidin-2-yl)phenyl]ethynyl]-5,6-dihydropyrrolo[1,2-a]imidazol-7-ol]",IC50,[1],≤ 0.5 nM
same,IC50,[2],5.9 nM
"CCc1cnc(N)c2nc(-c3cccc(C#C[C@]4(O)CCN(C)C4=O)c3)ncc12 [Example 129, (R)-3-((3-(8-Amino-5-ethylpyrido[3,4-d]pyrimidin-2-yl)phenyl)ethynyl)-3-hydroxy-1-methylpyrrolidin-2-one]",IC50,[1],≤ 0.5 nM
same,IC50,[2],12 nM
"CC(=O)Nc1nc(C)nc2ccc(-c3cccc(C#C[C@]4(O)CCN(C)C4=O)c3)nc12 [Example 258, (R)—N-(6-(3-((3-Hydroxy-1-methyl-2-oxopyrrolidin-3-yl)ethynyl)phenyl)-2-methylpyrido[3,2-d]pyrimidin-4-yl)acetamide]",IC50,[1],210 nM
same,IC50,[2],450 nM
"Cc1cc([C@](C)(O)C#Cc2ccc(C)c(-c3ncc4ccnc(N)c4n3)c2)no1 [Example 82, (R)-4-(3-(8-Aminopyrido[3,4-d]pyrimidin-2-yl)-4-methylphenyl)-2-(5-methylisoxazol-3-yl)but-3-yn-2-ol]",IC50,[1],31 nM
same,IC50,[2],2000 nM
"Cc1cc(-c2cccc(C#C[C@@]3(O)C(=O)N(C)[C@@H]4C[C@@H]43)c2)nc2c(N)ncnc12 [Example 281, (1R,4R,5S)-4-((3-(4-Amino-8-methylpyrido[3,2-d]pyrimidin-6-yl)phenyl)ethynyl)-4-hydroxy-2-methyl-2-azabicyclo[3.1.0]hexan-3-one]",IC50,[1],0.9 nM
same,IC50,[2],7.7 nM
"CN1CC[C@@](O)(C#Cc2cccc(-c3cc(Br)c4ncnc(N)c4n3)c2)C1=O [Example 253, (R)-3-((3-(4-Amino-8-bromopyrido[3,2-d]pyrimidin-6-yl)phenyl)ethynyl)-3-hydroxy-1-methylpyrrolidin-2-one]",IC50,[1],0.4 nM
same,IC50,[2],5.1 nM
"CN1CC[C@@](O)(C#Cc2cccc(-c3ncc4ccnc(N)c4n3)c2)C1=O [Example 1, (R)-3-[2-[3-(8-Aminopyrido[3,4-d]pyrimidin-2-yl)phenyl]ethynyl]-3-hydroxy-1-methyl-pyrrolidin-2-one]",IC50,[1],≤ 0.5 nM
same,IC50,[2],3.7 nM
"COc1ccc(C#C[C@]2(O)CCN(C)C2=O)cc1-c1ccc2nc(C)nc(N)c2n1 [Example 161, (R)-3-((3-(4-Amino-2-methylpyrido[3,2-d]pyrimidin-6-yl)-4-methoxyphenyl)ethynyl)-3-hydroxy-1-methylpyrrolidin-2-one]",IC50,[1],7 nM
same,IC50,[2],78 nM
"CN1CC[C@@](O)(C#Cc2cccc(-c3ccc4ncnc(N5CC(S(C)(=O)=O)C5)c4n3)c2)C1=O [Example 245, (R)-3-Hydroxy-1-methyl-3-((3-(4-(3-(methylsulfonyl)azetidin-1-yl)pyrido[3,2-d]pyrimidin-6-yl)phenyl)ethynyl)pyrrolidin-2-one]",IC50,[1],40 nM
same,IC50,[2],1190 nM
"Cc1nc(N)c2nc(-c3cccc(C#C[C@@](C)(O)c4cnc(C)s4)c3)ccc2n1 [Example 158, (R)-4-(3-(4-Amino-2-methylpyrido[3,2-d]pyrimidin-6-yl)phenyl)-2-(2-methylthiazol-5-yl)but-3-yn-2-ol]",IC50,[1],1930 nM
same,IC50,[2],> 5000 nM
"CN1CC[C@@](O)(C#Cc2cccc(-c3cc4c(N)nccc4cn3)c2)C1=O [Example 119, (R)-3-[2-[3-(5-Amino-2,6-naphthyridin-3-yl)phenyl]ethynyl]-3-hydroxy-1-methyl-pyrrolidin-2-one]",IC50,[1],0.7 nM
same,IC50,[2],43 nM
"CN1CC[C@@](O)(C#Cc2cccc(-c3cc(NC4CC4)c4ncnc(N)c4n3)c2)C1=O [Example 298, (R)-3-[2-[3-[4-Amino-8-(cyclopropylamino)pyrido[3,2-d]pyrimidin-6-yl]phenyl]ethynyl]-3-hydroxy-1-methyl-pyrrolidin-2-one]",IC50,[1],0.8 nM
same,IC50,[2],24 nM
"Cc1nc(N)c2nc(-c3cccc(C#C[C@](C)(O)c4cscn4)c3)ccc2n1 [Example 209, (S)-4-[3-(4-Amino-2-methyl-pyrido[3,2-d]pyrimidin-6-yl)phenyl]-2-thiazol-4-yl-but-3-yn-2-ol]",IC50,[1],110 nM
same,IC50,[2],> 5000 nM
"CN1CC[C@@](O)(C#Cc2cccc(-c3ncc4c(Br)cnc(N)c4n3)c2)C1=O [Example 94, (R)-3-((3-(8-Amino-5-bromopyrido[3,4-d]pyrimidin-2-yl)phenyl)ethynyl)-3-hydroxy-1-methylpyrrolidin-2-one]",IC50,[1],≤ 0.5 nM
same,IC50,[2],4.2 nM
"Cc1ccc(C#CC2(O)CCCC2)cc1-c1nc2c(N)ncnc2s1 [Example 185, 1-[2-[3-(7-Aminothiazolo[5,4-d]pyrimidin-2-yl)-4-methyl-phenyl]ethynyl]cyclopentanol]",IC50,[1],11 nM
same,IC50,[2],1520 nM
"CCc1nc(N)c2nc(-c3cccc(C#C[C@]4(O)CCN(C)C4=O)c3)ccc2n1 [Example 210, (R)-3-((3-(4-Amino-2-ethylpyrido[3,2-d]pyrimidin-6-yl)phenyl)ethynyl)-3-hydroxy-1-methylpyrrolidin-2-one]",IC50,[1],0.8 nM
same,IC50,[2],45 nM
